# In patent US6077872A (priority 1998, dated 2000):
# Like-named read-outs stand apart in the source and are kept apart here.
# Tests used:
# [1] = tested on: castrated male rats with osteoporosis; details: for bone mineral density F50: model-control 0.235 ± 0.022; for bone mineral density F20: model-control 0.244 ± 0.025
# From the text: (4) Measurement of bone mineral density.
# [2] = dog, in vivo
# [3] = tested on: castrated male rats with osteoporosis; details: for length of femur: model 3.26 ± 0.09; for ash weight of femur: model 187.5 ± 18.0; for calcium content of femur: model 245.1 ± 25.7; for dry weight of femur: model 360.0 ± 32.1; for wet weight of femur: model 638.3 ± 57.6
# Protocol: After pulled off soft tissue, the right femur was dried for 5 hours in oven at the temperature of 120° C. until its weight kept a constant (dry weight), then the product was baked for 6 hours in muffle furnace at the temperature of 800° C. until the weight of the product kept a constant which was the ash weight, namely the total amount of inorganic salts. After part of the ash was resolved in dilute hydrochloride, the calcium content of ash was measured by the method of EDTA titration. All data was expressed as X±SD(n). The significance of differences between groups were assessed using the "T-test" method of two groups of small specimen.
# In this test, the measuring methods for serum Ca, P, AKP levels, the bone mineral density, the length of femur, wet weight, dry weight, ash weight, the calcium content and the biomechanics of femur were all the same as in test II.
# [4] = tested on: ovariectomized rats with osteoporosis; assay: Test II: bone mineral density of femur in ovariectomized rats; details: for bone density F50: center of femur; for bone density F20: proximal position 20%, model-control 0.256 ± 0.022
# Protocol: Female 3-month-aged rats which had been excised of bilateral ovaries under sterilized condition were fed for a week until their wound was cured. Seventy healthy rats were selected and divided randomly into five groups of 14 rats. […] Group 1-5 were administered one time per day and 6 times per week and were also fed low-calcium diet and de-ionized water. The test period was 75 days. […] The bilateral femurs of rats were stripped off and stored in refrigerator. After the measurement of the bone mineral density, the left femur was stored for analysis of biomechanical characteristics.
# (4) Measurement of bone mineral density. Fresh femur iced in refrigerator was measured of bone mineral content at the center (F50) and the proximal position 20% (F20) of femur by single photon absorptiometry (Model BMD400GI) with a scanning speed of 0.25 mm/s and a precision degree of 99%, the Apparatus was proofread using a standard apparatus provided by Jishuitan Hospital, Beijing. The data was processed by software used clinically. The bone mineral content was expressed by a unit of bone mineral content per square centimeter (BMC/cm^2).
# ovariectomized rats = details: for serum Ca / serum P / serum Tr-ACP (in Bessey-Loury unit) / serum AKP (in Bessey-Loury unit): 75 days; for serum Ca: model-control 1.40 ± 0.72; for serum P: model-control 1.91 ± 0.34; for serum Tr-ACP (in Bessey-Loury unit): model-control 8.4 ± 2.8; for serum AKP (in Bessey-Loury unit): model-control 50.3 ± 15
# Protocol: (3) Pure synthetic low-calcium diet was formulated by mixing 40% fine wheat flour, 40% maize flour, 10% tyroprotein, 5% peanut oil, 3% AIN-76 mixed salts, 1% AIN-76 mixed vitamins, 1% cellulose and 0.3% DL-methionine, in which the calcium salt in AIN-76 mixed salts was replaced by glucose, and this preparation contains 64 mg calcium/100 g.
# The test period was 75 days.
# Serum Ca, P and AKP were measured by a 4010 Automatic Biochemical Analyzer. Serum Ca was determined by calorimetric method using methylthymol blue. Serum P was determined by Mono-Reagent Method. Alkaline phosphatase was determined by method of disodium p-nitrophenylphosphonate (AKP) The tartaric-resistant acidic phosphatase (Tr-ACP) mineral was determined by Piedra procedure. All above reagent-box were available from the Clinical Chemicals Sub-plant of Beijing Chemical Plant.
# preschool children = details: for children having normal BMDs: groups I and II
# Protocol: Seventy 3-6 years old healthy children whose bone mineral density were medium-lower at a central kindergarten in the suburban county of Beijing were selected as subjects, wherein there are 13 boys and 57 girls. All were healthy children who didn't have any metabolic diseases, liver or kidney diseases, bone wounds and abnormal diseases.
# Double blind method was employed during the observation. Every person was administered calcium preparation or placebo twice a day in a dosage of 1 bag each time. […] Group IV, established as blank-control group, was administered placebo which didn't contain calcium. All the above oral preparations were provided by Beijing Juneng Asian-Pacific Life Science Research Center.
# (1) Bone mineral density was measured before the test and 1.5 months and 3 months later after the administration of Ca supplements.
# The bone mineral density of radius in non-preferred hand was measured at the 1/3 point near the farther-end by a Model BMD400 Single-Photon absorptiometry produced conjointly by Institute of Atomic Energy, Ministry of Nuclear Industry, China and Institute of Broadcasting, Beijing, to obtain mean mineral bone density (BMD, g/cm^2). Each point was scanned twice with a scanning speed of 0.5 mm/sec.
# All data was analyzed with a SAS statistical software package.
# rickets-mice [5] = assay: Preventing rickets in younger mice: tibia strength (three-point bending); assay type: in vivo, mice of Kunming species; details: for breaking force (tibia): model 1.12 ± 0.37
# Protocol: (§1) The mice were bred for 60 days under conditions of avoiding light around-the-clock, at a temperature of 20-25° C. and a relative humility of 40-60% while the normal-control group mice were fed ordinary diet and water and were placed in non-dark room.
# (§2) The low-calcium diet used in this test was the same as that in Test II but VD in the vitamin mixture was replaced by glucose.
# (§3) Some weanling mice were placed in dark room and fed VD -deficient low-calcium diet and drunk de-ionized water for 60 days, thus a ricket model of baby mice was prepared. While other weanling mice were placed in non-dark room and fed ordinary diet and drunk tap water for 60 days, these mice were established as normal-control group.
# rickets-mice [6] = assay: Preventing rickets in younger mice: serum Ca, AKP, P; assay type: in vivo, mice of Kunming species; details: for serum Ca / serum P / serum AKP (in Bessey-Loury unit): 60 days; for serum Ca: model 1.55 ± 0.42; for serum P: model 2.23 ± 0.52; for serum AKP (in Bessey-Loury unit): model 101 ± 34
# Protocol: as §1, §2, §3
# rickets-babies = details: for craniomalacia, babies with symptom after the beginning of test: before test 3 (threonate), 4 (carbonate); for pillow-bald, babies with symptom after the beginning of test: before test 9 (threonate), 9 (carbonate); for night-sweat, babies with symptom after the beginning of test: before test 12 (threonate), 13 (carbonate)
# Protocol: Fourty rickets-babies at the age of 3-10 months were randomly divided into 2 groups of 20 babies each. […] Test group II, namely the calcium carbonate group, were administered orally calcium carbonate twice a day in a dosage of one bag each time. Each bag of the two kind of calcium preparations contained the same amount of element calcium, namely 150 mg element calcium.
# (1) Clinic symptoms mainly included the normal symptoms of rickets-babies such as night-sweat, pillow-bald, craniomalacia, etc.
# [7] = 2.31 g/kg/d (300 mg calcium; Caltrate-D 0.65 g/kg/d)
smiles,measurement,setting,value
O=C(O)[C@H](O)[C@@H](O)CO [calcium L-threonate],bone mineral density F50,[1]; 100 mg element calcium/kg/d,0.255 ± 0.025 BMC/BW
same,bone mineral density F20,[1]; 100 mg element calcium/kg/d,0.297 ± 0.037 BMC/BW
same,bone mineral density F50,[1]; 200 mg element calcium/kg/d,0.269 ± 0.019 BMC/BW
same,bone mineral density F20,[1]; 200 mg element calcium/kg/d,0.308 ± 0.020 BMC/BW
same,bone mineral density F50,[1]; 300 mg element calcium/kg/d,0.274 ± 0.018 BMC/BW
same,bone mineral density F20,[1]; 300 mg element calcium/kg/d,0.327 ± 0.033 BMC/BW
same,kinetic change of serum levels and pharmaceutical dynamic parameters (in words),[2],consistent with those of rats
same,length of femur,[3]; 0.76 g/kg/d,3.34 ± 0.05 cm
same,ash weight of femur,[3]; 0.76 g/kg/d,233.1 ± 19.76 mg
same,calcium content of femur,[3]; 0.76 g/kg/d,267.0
same,dry weight of femur,[3]; 0.76 g/kg/d,416.7 ± 29.7 g
same,wet weight of femur,[3]; 0.76 g/kg/d,688.4 ± 47.4 g
same,length of femur,[3]; 1.54 g/kg/d,3.34 ± 0.08 cm
same,ash weight of femur,[3]; 1.54 g/kg/d,269.66 ± 23.4 mg
same,calcium content of femur,[3]; 1.54 g/kg/d,268.2
same,dry weight of femur,[3]; 1.54 g/kg/d,458.1 ± 39.1 g
same,wet weight of femur,[3]; 1.54 g/kg/d,720.2 ± 69.7 g
same,length of femur,[3]; [7],3.35 ± 0.09 cm
same,ash weight of femur,[3]; [7],278.2 ± 31.8 mg
same,calcium content of femur,[3]; [7],266.7
same,dry weight of femur,[3]; [7],473.4 ± 57.2 g
same,wet weight of femur,[3]; [7],747.3 ± 95.2 g
same,"femur length, weights and calcium content (in words)","[3]; rat, in vivo","markedly higher femur length, wet weight, dry weight, ash weight and calcium content than those of the model group rats"
same,bone density F50,[4]; 100 mg element calcium/kg/d,0.289 ± 0.021 BMC/BW
same,bone density F20,[4]; 100 mg element calcium/kg/d,0.288 ± 0.021 BMC/BW
same,bone density F50,[4]; 200 mg element calcium/kg/d,0.282 ± 0.020 BMC/BW
same,bone density F20,[4]; 200 mg element calcium/kg/d,0.315 ± 0.032 BMC/BW
same,bone density F20,[4]; 300 mg element calcium/kg/d,0.314 ± 0.020 BMC/BW
same,bone density effect (in words),[4]; versus model-control group,markedly higher than that of model-control group rats
same,serum Ca,ovariectomized rats; 100 mg element calcium/kg/d,1.60 ± 0.75 mmol/L
same,serum P,ovariectomized rats; 100 mg element calcium/kg/d,2.08 ± 0.66 mmol/L
same,serum Tr-ACP (in Bessey-Loury unit),ovariectomized rats; 100 mg element calcium/kg/d,8.8 ± 1.8 U/L
same,serum AKP (in Bessey-Loury unit),ovariectomized rats; 100 mg element calcium/kg/d,48.7 ± 8.0 U/L
same,serum Ca,ovariectomized rats; 200 mg element calcium/kg/d,2.35 ± 0.35 mmol/L
same,serum P,ovariectomized rats; 200 mg element calcium/kg/d,1.87 ± 0.58 mmol/L
same,serum Tr-ACP (in Bessey-Loury unit),ovariectomized rats; 200 mg element calcium/kg/d,7.9 ± 2.4 U/L
same,serum AKP (in Bessey-Loury unit),ovariectomized rats; 200 mg element calcium/kg/d,41.4 ± 14 U/L
same,serum Ca,ovariectomized rats; 300 mg element calcium/kg/d,2.30 ± 0.75 mmol/L
same,serum P,ovariectomized rats; 300 mg element calcium/kg/d,1.88 ± 0.58 mmol/L
same,serum Tr-ACP (in Bessey-Loury unit),ovariectomized rats; 300 mg element calcium/kg/d,7.2 ± 2.1 U/L
same,serum AKP (in Bessey-Loury unit),ovariectomized rats; 300 mg element calcium/kg/d,38.2 ± 10 U/L
same,AKP and Tr-ACP effect (in words),ovariectomized rats; chronic feeding,might decrease the AKP and Tr-ACP levels in serum
same,serum Ca effect (in words),ovariectomized rats; long-time feeding,markedly raise the serum calcium level
same,blood P effect (in words),"ovariectomized rats; rat, in vivo",no evidence
same,bone mineral density,"preschool children; 2 bags/day of 150 mg element calcium, 1.5 month, before test 0.379 (threonate), 0.369 (carbonate)",0.424 ± 0.038 g/cm^2
same,extent of BMDs' increase,"preschool children; 2 bags/day of 150 mg element calcium, 1.5 months",11.87%
same,bone mineral density,"preschool children; 2 bags/day of 150 mg element calcium, 3 month, before test 0.379 (threonate), 0.369 (carbonate)",0.467 ± 0.027 g/cm^2
same,bone mineral density,"preschool children; 2 bags/day of 200 mg element calcium, 1.5 month, before test 0.362 ± 0.026",0.414 ± 0.027 g/cm^2
same,extent of BMDs' increase,"preschool children; 2 bags/day of 200 mg element calcium, 1.5 months",14.36%
same,bone mineral density,"preschool children; 2 bags/day of 200 mg element calcium, 3 month, before test 0.362 ± 0.026",0.460 ± 0.020 g/cm^2
same,extent of BMDs' increase,"preschool children; 2 bags/day of 200 mg element calcium, 3 months",25.41%
same,fraction of children whose BMD reached the normal level,preschool children; after 3 months,about 2/3
same,children having normal BMDs,preschool children; 1.5 months,about 12%
same,children having normal BMDs,preschool children; 3 months,~72%
same,breaking force (tibia),rickets-mice [5]; 200 mg calcium element,1.49 ± 0.38 kg
same,breaking force (tibia),rickets-mice [5]; 300 mg calcium element,1.59 ± 0.27 kg
same,breaking force of tibia (in words),"rickets-mice [5]; mouse, in vivo",significantly higher than those for the model group and were comparable with those for the normal-control group
same,serum Ca,rickets-mice [6]; 200 mg calcium element,2.33 ± 0.82 mmol/L
same,serum P,rickets-mice [6]; 200 mg calcium element,1.52 ± 0.45 mmol/L
same,serum AKP (in Bessey-Loury unit),rickets-mice [6]; 200 mg calcium element,59.3 ± 14 U/L
same,serum Ca,rickets-mice [6]; 300 mg calcium element,2.17 ± 0.82 mmol/L
same,serum P,rickets-mice [6]; 300 mg calcium element,1.35 ± 0.34 mmol/L
same,serum AKP (in Bessey-Loury unit),rickets-mice [6]; 300 mg calcium element,43.1 ± 14 U/L
same,serum Ca effect (in words),rickets-mice [6]; high and low dosage,approximate to that of the normal-control group but were much higher than those of the model group
same,serum AKP effect (in words),"rickets-mice [6]; mouse, in vivo",much lower than those of the model group
same,therapeutic effect on baby rickets (in words),rickets-babies; 300 mg element calcium,significantly superior to that of calcium carbonate
same,total symptom improvement,rickets-babies; four weeks,100%
same,"craniomalacia, babies with symptom after the beginning of test",rickets-babies; four weeks,0
same,"pillow-bald, babies with symptom after the beginning of test",rickets-babies; four weeks,0
same,"night-sweat, babies with symptom after the beginning of test",rickets-babies; four weeks,0
same,total symptom improvement,rickets-babies; two weeks,62.5%
same,rickets-babies free of symptoms,rickets-babies; two weeks of administration (concluding text),62%
same,"craniomalacia, babies with symptom after the beginning of test",rickets-babies; two weeks,2
same,"pillow-bald, babies with symptom after the beginning of test",rickets-babies; two weeks,7
same,"night-sweat, babies with symptom after the beginning of test",rickets-babies; two weeks,0
